Experimental data reported in PubChem BioAssay AID1845207 (Molecular Pharmacology Branch, DTP, NCI, 2023).

System: NCI-H1876 tumor spheroid viability
Test: Anticancer human tumor NCI-H1876 cell line growth inhibition;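 also: spheroids exposed to compounds for seven days before the viability read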;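 as to viability, T/C: percent of DMSO vehicle control viability so 100% = vehicle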
Settings: spheroids with HUVEC and MSC; for viability, T/C: stronger effect = lower value
Procedure, shortened: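 Complex tumor spheroids combined malignant cells with endothelial cells and mesenchymal stem cells. DNA-damaging drugs and DNA repair inhibitors were tested alone and in combination, at half-log dilutions down from clinical Cmax (top 10 microM if Cmax unknown), 0.25% DMSO final.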

[1] = curve of first compound, second compound 30 pM
[2] = curve of first compound, second compound 94.9 pM
[3] = curve of first compound, second compound 0.0003 µM
[4] = curve of first compound, second compound 0.000949 µM
[5] = curve of first compound, second compound 0.003 µM
[6] = second compound 30 pM, first compound 0.00949 µM
[7] = second compound 30 pM, first compound 0.03 µM
[8] = second compound 30 pM, first compound 0.0949 µM
[9] = second compound 30 pM, first compound 0.3 µM
[10] = second compound 30 pM, first compound 0.949 µM
[11] = second compound 30 pM, first compound 3 µM
[12] = second compound 94.9 pM, first compound 0.00949 µM
[13] = second compound 94.9 pM, first compound 0.03 µM
[14] = second compound 94.9 pM, first compound 0.0949 µM
[15] = second compound 94.9 pM, first compound 0.3 µM
[16] = second compound 94.9 pM, first compound 0.949 µM
[17] = second compound 94.9 pM, first compound 3 µM
[18] = second compound 0.0003 µM, first compound 0.00949 µM
[19] = second compound 0.0003 µM, first compound 0.03 µM
[20] = second compound 0.0003 µM, first compound 0.0949 µM
[21] = second compound 0.0003 µM, first compound 0.3 µM
[22] = second compound 0.0003 µM, first compound 0.949 µM
[23] = second compound 0.0003 µM, first compound 3 µM
[24] = second compound 0.000949 µM, first compound 0.00949 µM
[25] = second compound 0.000949 µM, first compound 0.03 µM
[26] = second compound 0.000949 µM, first compound 0.0949 µM
[27] = second compound 0.000949 µM, first compound 0.3 µM
[28] = second compound 0.000949 µM, first compound 0.949 µM
[29] = second compound 0.000949 µM, first compound 3 µM
[30] = second compound 0.003 µM, first compound 0.00949 µM
[31] = second compound 0.003 µM, first compound 0.03 µM
[32] = second compound 0.003 µM, first compound 0.0949 µM
[33] = second compound 0.003 µM, first compound 0.3 µM
[34] = second compound 0.003 µM, first compound 0.949 µM
[35] = second compound 0.003 µM, first compound 3 µM

In the case of `CNCc1ccc(-c2cc(-c3nc(-c4ccc(S(=O)(=O)C(C)C)cc4)cnc3N)on2)cc1` + COc1cc2c(cc1O)CCNC21CSC2c3c(OC(C)=O)c(C)c4c(c3C(COC1=O)N1C(O)C3Cc5cc(C)c(OC)c(O)c5C(C21)N3C)OCO4, the IC50 [1] is reported as 571 nM, the IC50 [2] is reported as 223 nM and the IC50 [3] is reported as < 9.49 nM. For the same compound, the IC50 [4] was < 9.49 nM, the IC50 [5] was < 9.49 nM and the viability, T/C [6] was 103%. The viability, T/C [7] was 103%, the viability, T/C [8] was 97.8% and the viability, T/C [9] was 67.2%. It also gave a viability, T/C [10] of 36.5%, a viability, T/C [11] of 16.2% and a viability, T/C [12] of 94.4%. The viability, T/C [13] was 89%, the viability, T/C [14] was 70.5% and the viability, T/C [15] was 42.5%. For the same compound, the viability, T/C [16] was 21.2%, the viability, T/C [17] was 10.1% and the viability, T/C [18] was 27.9%. For the same compound, the viability, T/C [19] was 24.4%, the viability, T/C [20] was 16.4% and the viability, T/C [21] was 12.7%. For the same compound, the viability, T/C [22] was 9.09%, the viability, T/C [23] was 6.61% and the viability, T/C [24] was 4.01%. For the same compound, the viability, T/C [25] was 3.41%, the viability, T/C [26] was 3.12% and the viability, T/C [27] was 3.01%. It also gave a viability, T/C [28] of 4.43%, a viability, T/C [29] of 2.48% and a viability, T/C [30] of 0.56%. It also gave a viability, T/C [31] of 1.11%, a viability, T/C [32] of 1.21% and a viability, T/C [33] of 0.84%. For the same compound, the viability, T/C [34] was 0.9% and the viability, T/C [35] was 0.8%.
In the case of `CC1COCCN1c1cc(-c2ccnn2C)c2ccnc(-c3ccn[nH]3)c2n1` (stereo not given) + COc1cc2c(cc1O)CCNC21CSC2c3c(OC(C)=O)c(C)c4c(c3C(COC1=O)N1C(O)C3Cc5cc(C)c(OC)c(O)c5C(C21)N3C)OCO4, the IC50 [1] is reported as < 31.6 nM, the IC50 [2] is reported as < 31.6 nM and the IC50 [3] is reported as < 31.6 nM. For the same compound, the IC50 [4] was < 31.6 nM, the IC50 [5] was < 31.6 nM and the viability, T/C (second compound 30 pM, first compound 0.0316 µM) was 30.7%. It also gave a viability, T/C (second compound 30 pM, first compound 0.1 µM) of 17.9%, a viability, T/C (second compound 30 pM, first compound 0.316 µM) of 11.3% and a viability, T/C (second compound 30 pM, first compound 1 µM) of 4.58%. It also gave a viability, T/C (second compound 30 pM, first compound 3.16 µM) of 3.01%, a viability, T/C (second compound 30 pM, first compound 10 µM) of 2.83% and a viability, T/C (second compound 94.9 pM, first compound 0.0316 µM) of 17.4%. It also gave a viability, T/C (second compound 94.9 pM, first compound 0.1 µM) of 10.3%, a viability, T/C (second compound 94.9 pM, first compound 0.316 µM) of 6.18% and a viability, T/C (second compound 94.9 pM, first compound 1 µM) of 3.39%. The viability, T/C (second compound 94.9 pM, first compound 3.16 µM) was 2.3%, the viability, T/C (second compound 94.9 pM, first compound 10 µM) was 2.27% and the viability, T/C (second compound 0.0003 µM, first compound 0.0316 µM) was 5.4%. For the same compound, the viability, T/C (second compound 0.0003 µM, first compound 0.1 µM) was 4.29%, the viability, T/C (second compound 0.0003 µM, first compound 0.316 µM) was 2.95% and the viability, T/C (second compound 0.0003 µM, first compound 1 µM) was 2.33%. It also gave a viability, T/C (second compound 0.0003 µM, first compound 3.16 µM) of 2.39%, a viability, T/C (second compound 0.0003 µM, first compound 10 µM) of 2.2% and a viability, T/C (second compound 0.000949 µM, first compound 0.0316 µM) of 2.56%. The viability, T/C (second compound 0.000949 µM, first compound 0.1 µM) was 2.32%, the viability, T/C (second compound 0.000949 µM, first compound 0.316 µM) was 1.67% and the viability, T/C (second compound 0.000949 µM, first compound 1 µM) was 1.48%. The viability, T/C (second compound 0.000949 µM, first compound 3.16 µM) was 1.48%, the viability, T/C (second compound 0.000949 µM, first compound 10 µM) was 2.04% and the viability, T/C (second compound 0.003 µM, first compound 0.0316 µM) was 0.92%. It also gave a viability, T/C (second compound 0.003 µM, first compound 0.1 µM) of 1.05%, a viability, T/C (second compound 0.003 µM, first compound 0.316 µM) of 0.72% and a viability, T/C (second compound 0.003 µM, first compound 1 µM) of 0.9%. It also gave a viability, T/C (second compound 0.003 µM, first compound 3.16 µM) of 0.88% and a viability, T/C (second compound 0.003 µM, first compound 10 µM) of 0.28%.
`Cn1ncnc1[C@H]1c2n[nH]c(=O)c3cc(F)cc(c23)N[C@@H]1c1ccc(F)cc1` + COc1cc2c(cc1O)CCNC21CSC2c3c(OC(C)=O)c(C)c4c(c3C(COC1=O)N1C(O)C3Cc5cc(C)c(OC)c(O)c5C(C21)N3C)OCO4 was tested, and the IC50 [1] was 35.5 nM, the IC50 [2] was < 9.49 nM and the IC50 [3] was < 9.49 nM. For the same compound, the IC50 [4] was < 9.49 nM, the IC50 [5] was < 9.49 nM and the viability, T/C [6] was 80.3%. For the same compound, the viability, T/C [7] was 53.5%, the viability, T/C [8] was 28.6% and the viability, T/C [9] was 11.9%. It also gave a viability, T/C [10] of 6.01%, a viability, T/C [11] of 3.44% and a viability, T/C [12] of 47.9%. The viability, T/C [13] was 28.1%, the viability, T/C [14] was 15.5% and the viability, T/C [15] was 7.46%. For the same compound, the viability, T/C [16] was 5.44%, the viability, T/C [17] was 2.76% and the viability, T/C [18] was 11.8%. It also gave a viability, T/C [19] of 7.22%, a viability, T/C [20] of 5.49% and a viability, T/C [21] of 4.25%. The viability, T/C [22] was 5.23%, the viability, T/C [23] was 2.79% and the viability, T/C [24] was 2.86%. It also gave a viability, T/C [25] of 3.01%, a viability, T/C [26] of 2.85% and a viability, T/C [27] of 3.24%. It also gave a viability, T/C [28] of 2.36%, a viability, T/C [29] of 1.56% and a viability, T/C [30] of 0.64%. It also gave a viability, T/C [31] of 0.8%, a viability, T/C [32] of 0.45% and a viability, T/C [33] of 0.68%. For the same compound, the viability, T/C [34] was 1.05% and the viability, T/C [35] was 0.79%.
With `COc1cc2c(cc1O)CCNC21CSC2c3c(OC(C)=O)c(C)c4c(c3C(COC1=O)N1C(O)C3Cc5cc(C)c(OC)c(O)c5C(C21)N3C)OCO4` (stereo not given) the viability, T/C (compound 30 pM) was 102% [middle of 10 runs], the viability, T/C (compound 94.9 pM) was 90.2% [middle of 10 runs] and the viability, T/C (compound 0.000949 µM) was 2.68% [middle of 10 runs]. The viability, T/C (compound 0.003 µM) was 0.78% [middle of 10 runs] and the IC50 (compound alone, run of 12/16/2019) was 0.197 nM [middle of 10 runs].
